Results as given in patent US7985744B2, “Vitamin D derivatives” (Chugai Seiyaku Kabushiki Kaisha, priority 2000, dated 2011).

Legend:
[1] = Blood ionized calcium level in mice after percutaneous administration (Test Examples 1 and 3); type: in vivo; details: Balb/c mice, percutaneous single application, dose 1000 μg/kg, blood taken two days after administration
Experimental: Eight week old male Balb/c mice were percutaneously administered with active vitamin D3 (1α,25 (OH)2D3, 125 μg/ml in ethanol) or Compounds 1 to 5 (vitamin D derivatives prepared in the above Examples, 500 μg/ml in ethanol) or ethanol alone (as a control). These samples were applied once to the dorsal skin (about 1.5×2.0 cm^2) of the mice in a volume of 2 ml/kg. Each of the mice was then fitted with a necklace harness in order to avoid oral ingestion. On the next day, the administered sites were cleaned and the necklace harnesses were removed. Two days after administration, blood was taken from each mouse and assayed for ionized calcium level by the ion selective electrode method. The assay was performed in groups of 3 mice. […] Ionized calcium levels in the table are expressed as mean values.
The same procedures as shown in Test Example 1 were repeated to assay blood ionized calcium levels in mice, except that Compounds 6 to 12 were used as vitamin D derivatives. […] Ionized calcium levels in the table are expressed as mean values.

[2] = test system: Keratinocytes from adult human skin; assay: Growth inhibition against keratinocytes, [3H]thymidine incorporation (Test Example 4); type: cell-based; details: relative inhibition = IC50 of active vitamin D3 / IC50 of test compound
Experimental: Keratinocytes from adult human skin (Clonetics) were seeded in 96-well plates (COSTAR 3595) at a cell density of 1×10^3/well. The wells were then supplemented with the given concentrations of active vitamin D3 (1α,25 (OH)2D3) or Compounds 6 to 12, followed by incubation in KGM-2 medium at a cell density of 1×10^3 cells/200 μl/well for 3 days at 37° C. in 5% CO2 and 95% air. [^3H]Thymidine was added to each well (7.4 kBq/well) and the plates were further incubated for 1 day. After removal of the medium, each well was treated with 0.05% trypsin/0.53 mM EDTA to strip the cells. The amount of [^3H]thymidine incorporated into the cells was determined with a liquid scintillation counter (1450 MicroBeta, Wallac). […] Growth inhibition against keratinocytes in the table was expressed as a relative value of each compound compared to active vitamin D3: Relative inhibition=(IC50 (mol/l) of active vitamin D3)/(IC50 (mol/l) of test compound).

[3] = test system: Keratinocytes from human neonatal foreskin; assay: Growth inhibition against human keratinocytes, [3H]thymidine uptake (Test Example 2); type: cell-based; details: relative inhibition = IC50 of active vitamin D3 / IC50 of each compound
Experimental: Keratinocytes from human neonatal foreskin (Clonetics) were seeded in 96-well plates (COSTAR 3595) at a cell density of 2×10^3/well. The wells were then supplemented with the given concentrations of active vitamin D3 (1α,25 (OH)2D3) or Compounds 1 to 5, followed by incubation in KGM-2 medium at a cell density of 2×10^3 cells/200 μl/well for 3 days at 37° C. in 5% CO2 and 95% air. [^3H]Thymidine was added to each well (7.4 kBq/well) and the plates were further incubated for 1 day. Each well was washed once with calcium- and magnesium-free phosphate buffer (Dulbecco's PBS(−), Nissui, code 05913, pH 7.3-7.65) and then treated with 0.25% trypsin to strip the cells. The [^3H]thymidine uptake of the cells was determined by a liquid scintillation counter (1450 MicroBeta, Wallac). […] Growth inhibition against human keratinocytes in the table was expressed as a relative value of each compound compared to active vitamin D3: Relative inhibition=(IC50 (mol/l) of active vitamin D3)/(IC50 (mol/l) of each compound).

Molecule | Blood ionized calcium level ([1]; Test Example 3, mean values) [mmol/L] | Blood ionized calcium level ([1]; Test Example 1, mean of 3 mice) [mmol/L] | Growth inhibition against human keratinocytes (relative value) [2] | Growth inhibition against human keratinocytes (relative value) [3]
1α,25(OH)2D3 |  |  | 1.0 | 1.0
C=C1/C(=C\C=C2/CCC[C@]3(C)C([C@H](C)OCCC(=O)OC(C)(C)C)=CC[C@@H]23)C[C@@H](O)C[C@@H]1O [Compound 3, 1α,3β-dihydroxy-20(S)-(tert-butoxycarbonylethoxy)-9,10-secopregna-5,7,10(19),16-tetraene] |  |  |  | 0.5
1α,3β-dihydroxy-20(S)-(N-tert-butyl-N-methylaminocarbonylmethoxy)-9,10-secopregna-5,7,10(19),16-tetraene [Compound 2] |  | 2.27 |  | 5.9
20(S)-(tert-butoxycarbonylmethoxy)-1α,3β-dihydroxy-9,10-secopregna-5,7,10(19),16-tetraene [Compound 1] |  | 1.65 |  | 2.0
C=C1C(=CC=C2CCCC3(C)C(C(C)OCC(=O)OC(C)(C)CCC)=CCC23)CC(O)CC1O [Compound 8, 1α,3β-dihydroxy-20(S)-(1,1-dimethylbutoxycarbonylmethoxy)-9,10-secopregna-5,7,10(19),16-tetraene] | 1.39 |  | 2.5 | 

Further lines, with some results ahead:

Blood ionized calcium level ([1]; Test Example 3, mean values) [mmol/L] | Blood ionized calcium level ([1]; Test Example 1, mean of 3 mice) [mmol/L] | Molecule | Growth inhibition against human keratinocytes (relative value) [2] | Growth inhibition against human keratinocytes (relative value) [3]
1.55 |  | C=C1C(=CC=C2CCCC3(C)C2CCC3C(C)OCC(=O)OC(C)(CC)CC)CC(O)CC1O [Compound 9, 1α,3β-dihydroxy-20(S)-(1-ethyl-1-methylpropoxycarbonylmethoxy)-9,10-secopregna-5,7,10(19)-triene] | 0.7 | 
 | 1.35 | C=C1C(=CC=C2CCCC3(C)C(C(C)OCC(=O)OC(C)C)=CCC23)CC(O)CC1O [Compound 5, 1α,3β-dihydroxy-20(S)-(isopropoxycarbonylmethoxy)-9,10-secopregna-5,7,10(19),16-tetraene] |  | 0.3
 | 2.16 | 1α,3β-dihydroxy-20(S)-(N-tert-butylaminocarbonylmethoxy)-9,10-secopregna-5,7,10(19),16-tetraene [Compound 4] |  | 7.0
1.57 |  | C=C1/C(=C\C=C2/CCC[C@]3(C)C([C@H](C)OCC(=O)OC(C)(CC)CC)=CC[C@@H]23)C[C@@H](O)C[C@@H]1O [Compound 6, 1α,3β-dihydroxy-20(S)-(1-ethyl-1-methylpropoxycarbonylmethoxy)-9,10-secopregna-5,7,10(19),16-tetraene] | 12.0 | 
1.58 |  | C=C1/C(=C\C=C2/CCC[C@]3(C)C([C@H](C)OCC(=O)NCC(F)(F)C(F)(F)F)=CC[C@@H]23)C[C@@H](O)C[C@@H]1O [Compound 12, {(1α,3β-dihydroxy-9,10-secopregna-5,7,10(19),16-tetraen-20(S)-yl)oxy}-N-(2,2,3,3,3-pentafluoropropyl)acetamide] | 8.3 | 
1.28 |  | 1α,3β-dihydroxy-20(S)-(1-isopropyl-2-methylpropoxycarbonylmethoxy)-9,10-secopregna-5,7,10(19),16-tetraene [Compound 7] | 0.4 | 
1.43 |  | 1α,3β-dihydroxy-20(S)-(1,1-dimethylhexyloxycarbonylmethoxy)-9,10-secopregna-5,7,10(19),16-tetraene [Compound 10] | 1.6 | 
1.42 |  | C=C1C(=CC=C2CCCC3(C)C(C(C)OCCC(=O)OC(C)(CC)CC)=CCC23)CC(O)CC1O [Compound 11, 1α,3β-dihydroxy-20(S)-{2-(1-ethyl-1-methylpropoxycarbonyl)ethoxy}-9,10-secopregna-5,7,10(19),16-tetraene] | 0.4 | 
